Test results published in patent publication US20260378560A1, “APPROACHES TO DESIGNING AND PERFORMING COMPRESSED BIOLOGICAL EXPERIMENTS AND SYSTEMS FOR IMPLEMENTING THE SAME” (EXVIVO LABS INC., priority 2023, published 2026).

Tests used:
MOLT-4 [1] = test: Cell viability (CellTiter Glo), compressed perturbation pools with informed pool design, SUM-based deconvolution, MOLT-4; set-up: scale not given here
Procedure: Total cell viability was measured for each sample using an ATP-based luminescence assay (i.e., CellTiter Glo). Each cancer drug was then screened at multiple concentrations ranging from one nM to ten μM in order to generate a dose-response curve and calculate a DRS for each cancer cell line.
Each cancer drug was cultured with target cells individually. At the end of the screen, samples were either analyzed individually or compressed into pools for analysis. The library was compressed alphabetically into ten cohorts, each of which contained seven cancer drugs present in three out of the seven pools, as shown in Table VII. Said another way, the screening platform 210 generated a “7 pick 3” compressed library by assigning the cancer drugs among different pools. […] The library was also compressed into ten cohorts with pools designed based on information known about each cancer drug, as shown in Table VIII. After cell viability measurement and DRS calculation, the DRS of each cancer drug in the samples generated based on the pools were deconvoluted and compared to the DRS for each cancer drug measured individually.
In parallel to the exemplary sample compression screen covered in Table VII, perturbations were compressed into pools and then screened. The pools were designed using drug class as a feature with two compression rules (or simply “rules”). The first rule required that drugs from the same class be separated into different cohorts (i.e., mutually exclusive groups of pools). The second rule separated PI3K pathway inhibitors from MAPK pathway inhibitors, as inhibiting these pathways in parallel is known to be synergistic but has not been clinically effective due to dose-limiting toxicities. A benefit of compressing perturbations is the ability to measure additive, antagonistic, and synergistic effects between drugs in the same pool. However, these effects can negatively impact deconvolution of individual drug effects. Therefore, combinations of drugs for which evidence of clinical toxicity exists can be assigned to different pools in accordance with an informed pooling operation. As new preclinical or clinical evidence of toxic combinations becomes available, the rules implemented by the screening platform 210—and more specifically, its algorithm for compressing members of a library—can be updated accordingly.
In SUM-based deconvolution, an assumption of additivity is used to quantify the individual effects of each perturbation on each target. Additivity implies that each perturbation effect on each target is positively contributing to the overall effect measured for that pool. This is an accurate assumption for certain experiments, such as when targets or samples are compressed. When targets are pooled—or when samples containing different targets are pooled—the effect of each perturbation on each individual target is diluted. In other words, each perturbation has an isolated effect on a target in culture, and the sum total of the isolated effects are measured when pooled. Therefore, SUM-based deconvolution breaks down the sum total measured for a pool and assigns estimated fractional effects to each compressed perturbation or target in the pool. The screening platform 210 used SUM-based deconvolution for all target and sample compression experiments described above.
As mentioned above, SUM-based deconvolution uses the overlapping pool design to identify relative relationships and ranges for the individual effects of each perturbation. When the overlapping pool design is not sufficient to solve for the polynomials representing perturbation effects, an anchor perturbation can be identified by the screening platform 210 based on rank order and assigned an effect size of zero. The anchor perturbation may be the lowest ranked perturbation in the rank order. This then enables the screening platform 210 to solve for the polynomials for the remaining perturbations.

CCRF-HSB2 = test: ATP-based luminescence cell viability (CellTiter Glo), drug response score, CCRF-HSB2
Excerpt: (§1) As part of a screen, a drug could be screened at different concentrations ranging from a lowest concentration to a highest concentration. In such a scenario, multiple data structures may be obtained by the screening platform 210. […] With these multiple data structures, the analysis module 218 can generate a dose-response curve that describes the magnitude of the response of the biological target, as a function of exposure to different concentrations of the drug. Further, the analysis module 218 can calculate a metric that is indicative of the response of the biological target. In the event that the biological target is one of multiple biological targets that are introduced to the pools of drugs, the metric can be used by the screening platform 210 to better understand the relative magnitude of responses. One example of a metric is drug-response score (“DRS”). DRS can be calculated as a continuous function of multiple parameters of the non-linear dose-response curve, including the slope at the half-maximal effective concentration (also called “EC50”) and the top and bottom asymptotes of the dose-response curve. DRS can be calculated as follows: […]
(§2) where y is a continuous function of the variable dose x, a is the maximal response (i.e., the top asymptote of the curve), b is the slope of the curve, c is the IC50 (i.e., half-maximal inhibitory concentration), and d is the minimal response (i.e., the bottom asymptote of the curve). Other examples of metrics include those output by sigmoidal and Hill slide functions that, like DRS, incorporate multiple aspects of the dose-response curve into a continuous function.
(§3) Total cell viability was measured for each cancer cell line using an Adenosine TriPhosphate (“ATP”) assay, and more specifically an ATP-based luminescence assay (i.e., CellTiter Glo). Each cancer drug was screened at multiple concentrations ranging from one nanomolar (nM) to ten micromolar (UM) in order to generate a dose-response curve and calculate a drug response score (“DRS”) for each cancer cell line. The DRS was calculated as a continuous function of multiple parameters of the non-linear dose-response curve, including the slope at the half-maximal effective concentration (also called “EC50”) and the top and bottom asymptotes of the dose-response curve. […] After total cell viability was measured and DRS was calculated, the DRS of each cancer cell line in the pool was deconvolved for each cancer drug.
(§4) DRS for these anchor cell lines are bolded and italicized. Anchors can be identified based on frequency of the cell lines in pools with high DRS versus low DRS. At a high level, an anchor is predicted to be the cell line with the lowest individual DRS. In order to deconvolute individual cell line DRS values from pool DRS values, the anchor can start with an assumed DRS value of zero. Each pool can then be expressed as a polynomial of variables (cell lines in the pool) and constants (DRS value of the pool). The DRS value of each cell line can then be solved for using the anchor value and overlapping polynomial expressions. When multiple values are calculated for the final target solved from the polynomials, then the anchor has a non-zero value that can be determined based on the difference in the calculated value of the final target.
(§5) Each pool represented a co-culture of three cell lines (“Target Compression”).

CCRF-CFM = test: ATP-based luminescence cell viability (CellTiter Glo), drug response score, CCRF-CFM; set-up: scale not given here; conditions: Target compression
Excerpt: as §1, §2, §3, §4, §5

MOLT-4 [2] = test: ATP-based luminescence cell viability (CellTiter Glo), drug response score, MOLT-4; conditions: MOLT-4, screened individually (Compress: None)
Excerpt: as §1, §2
Total cell viability was measured for each cancer cell line using an Adenosine TriPhosphate (“ATP”) assay, and more specifically an ATP-based luminescence assay (i.e., CellTiter Glo). […] The DRS was calculated as a continuous function of multiple parameters of the non-linear dose-response curve, including the slope at the half-maximal effective concentration (also called “EC50”) and the top and bottom asymptotes of the dose-response curve. […] After total cell viability was measured and DRS was calculated, the DRS of each cancer cell line in the pool was deconvolved for each cancer drug.
DRS for these anchor cell lines are bolded and italicized. […] Each pool can then be expressed as a polynomial of variables (cell lines in the pool) and constants (DRS value of the pool). […] When multiple values are calculated for the final target solved from the polynomials, then the anchor has a non-zero value that can be determined based on the difference in the calculated value of the final target. […]

SUP-B15 = test: ATP-based luminescence cell viability (CellTiter Glo), drug response score, SUP-B15; set-up: scale not given here
Excerpt: as §1, §2, §3, §4, §5

[3] = CCRF-HSB2, Sample compression, 5 Pick 3 pools
[4] = CCRF-HSB2, Target compression, 5 Pick 3 pools
[5] = CCRF-HSB2, Target compression, 6 Pick 3 pools
[6] = CCRF-HSB2, Target compression, 7 Pick 3 pools
[7] = SUP-B15, Sample compression, 5 Pick 3 pools
[8] = SUP-B15, Target compression, 5 Pick 3 pools
[9] = SUP-B15, Target compression, 6 Pick 3 pools
[10] = SUP-B15, Target compression, 7 Pick 3 pools

With C=CC(=O)Nc1cc(Nc2nccc(-c3cn(C)c4ccccc34)n2)c(OC)cc1N(C)CCN(C)C [Osimertinib] the “DRS, MOLT-4, SUM” value (MOLT-4 [1]) was 0.54.

For COc1cc2ncnc(Nc3ccc(F)c(Cl)c3)c2cc1OCCCN1CCOCC1 [Gefitinib], the “DRS, MOLT-4, SUM” value (MOLT-4 [1]) was 2.22.

COc1c(OCCCN2CCOCC2)ccc2c1N=C(NC(=O)c1cnc(N)nc1)N1CCN=C21 [Copanlisib] was tested, and the DRS from deconvolution (CCRF-HSB2; [3]) was 7.35, the DRS from deconvolution (CCRF-HSB2; [4]) was 7.82 and the DRS from deconvolution (CCRF-HSB2; [5]) was 7.97. It also gave a DRS from deconvolution (CCRF-HSB2; [6]) of 7.10, a DRS from deconvolution (CCRF-CFM; 5 Pick 3 pools) of 15.66 and a DRS from deconvolution (CCRF-CFM; 6 Pick 3 pools) of 15.88. The DRS from deconvolution (CCRF-CFM; 7 Pick 3 pools) was 15.03, the “drug response score (DRS)” value (MOLT-4 [2]) was 9.44 and the DRS from deconvolution (SUP-B15; [7]) was 1.80. It also gave a DRS from deconvolution (SUP-B15; [8]) of 1.98, a DRS from deconvolution (SUP-B15; [9]) of 3.00 and a DRS from deconvolution (SUP-B15; [10]) of 1.91.

For N#Cc1ccnc(N2C(=O)CC[C@H]2C(=O)N(c2cncc(F)c2)[C@H](C(=O)NC2CC(F)(F)C2)c2ccccc2Cl)c1 [Ivosidenib], the DRS from deconvolution (CCRF-HSB2; [3]) was 1.52, the DRS from deconvolution (CCRF-HSB2; [4]) was 1.74 and the DRS from deconvolution (CCRF-HSB2; [5]) was 1.53. It also gave a DRS from deconvolution (CCRF-HSB2; [6]) of 1.61, a DRS from deconvolution (CCRF-CFM; 5 Pick 3 pools) of 1.15 and a DRS from deconvolution (CCRF-CFM; 6 Pick 3 pools) of 0.89. For the same compound, the DRS from deconvolution (CCRF-CFM; 7 Pick 3 pools) was 1.01, the “drug response score (DRS)” value (MOLT-4 [2]) was 0.20 and the DRS from deconvolution (SUP-B15; [7]) was 0.09. The DRS from deconvolution (SUP-B15; [8]) was 0.00, the DRS from deconvolution (SUP-B15; [9]) was 0.00 and the DRS from deconvolution (SUP-B15; [10]) was 0.00.

Cc1[nH]c2ccccc2c1CCNCc1ccc(/C=C/C(=O)NO)cc1 [Panobinostat] gave a DRS from deconvolution (CCRF-HSB2; [3]) of 18.63, a DRS from deconvolution (CCRF-HSB2; [4]) of 19.75 and a DRS from deconvolution (CCRF-HSB2; [5]) of 17.30. The DRS from deconvolution (CCRF-HSB2; [6]) was 17.26, the DRS from deconvolution (CCRF-CFM; 5 Pick 3 pools) was 19.98 and the DRS from deconvolution (CCRF-CFM; 6 Pick 3 pools) was 16.57. For the same compound, the DRS from deconvolution (CCRF-CFM; 7 Pick 3 pools) was 18.55, the “drug response score (DRS)” value (MOLT-4 [2]) was 15.10 and the DRS from deconvolution (SUP-B15; [7]) was 25.45. For the same compound, the DRS from deconvolution (SUP-B15; [8]) was 21.44, the DRS from deconvolution (SUP-B15; [9]) was 22.36 and the DRS from deconvolution (SUP-B15; [10]) was 21.78.

With CC1(C)CCC(CN2CCN(c3ccc(C(=O)NS(=O)(=O)c4ccc(NCC5CCOCC5)c([N+](=O)[O-])c4)c(Oc4cnc5[nH]ccc5c4)c3)CC2)=C(c2ccc(Cl)cc2)C1 [Venetoclax] the “DRS, MOLT-4, SUM” value (MOLT-4 [1]) was 2.44, the DRS from deconvolution (CCRF-HSB2; [3]) was 0.00 and the DRS from deconvolution (CCRF-HSB2; [4]) was 0.00. It also gave a DRS from deconvolution (CCRF-HSB2; [5]) of 0.00, a DRS from deconvolution (CCRF-HSB2; [6]) of 0.00 and a DRS from deconvolution (CCRF-CFM; 5 Pick 3 pools) of 0.28. The DRS from deconvolution (CCRF-CFM; 6 Pick 3 pools) was 1.51, the DRS from deconvolution (CCRF-CFM; 7 Pick 3 pools) was 1.07 and the “drug response score (DRS)” value (MOLT-4 [2]) was 2.90. For the same compound, the DRS from deconvolution (SUP-B15; [7]) was 37.02, the DRS from deconvolution (SUP-B15; [8]) was 37.99 and the DRS from deconvolution (SUP-B15; [9]) was 37.35. The DRS from deconvolution (SUP-B15; [10]) was 35.04.
